# Experimental data taken from patent publication US12157730B2, “Heteroaryl derivative, method for producing same, and pharmaceutical composition comprising same as effective component” (VORONOI INC., priority 2019, dated 2024).
# Experiments:
# Ba/F3 cell naive = assay: Ba/F3 cell proliferation suppression, naive; type: cell-based; settings: Mus musculus, BaF3; 72 hours after treatment, CellTiter-Glo
# Protocol: (§1) The following experiment was carried out to evaluate the suppression activity of the compounds according to the present invention against proliferation of Ba/F3 and lung cancer cells which express EGFR mutations.
# (§2) Of the cancer cell lines expressing the EGFR gene, A549 was cultured after adding 10% FBS (HyClone) to DMEM (Invitrogen), and RPMI-1640 (Invitrogen) with 10% FBS was used for the other cancer cells. For the Ba/F3 cells, RPMI-1640 with 10% FBS and 5 ng/ml IL-3 (R&D Systems) was used. The transduced Ba/F3 cells were cultured by adding 1 ug/ml puromycin (Invitrogen) to the same medium.
# (§3) 24 hours before treatment with the compounds, 3000 to 5000 cells were distributed into each well of a white clear bottom 96 well plate (Corning). The compounds were diluted in dimethylsulfoxide (dilution ratio 3:1; 12 concentrations total) and injected 0.5 ul each for a final concentration of 0.3 nM to 50 um. As for measurement of live cells, 72 hours after treatment with the compounds, a CellTiter-Glo luminescent cell-viability reagent (Promega) was used to store the cells at room temperature for 10 minutes, followed by measurement of luminescence using a reader (SynergyNeo, Biotek). Each test was repeated three times.
# (§4) The result was calculated as a cell growth ratio (%) compared to a control. The program GraphPad Prism version 5.0 was used to draw the graphs and calculate the GI50 values.
# [1] = system: Ba/F3 cell EGFR Del19/T790M; assay: Ba/F3 cell proliferation suppression, EGFR Del19/T790M; type: cell-based; settings: 72 hours after treatment, CellTiter-Glo
# Protocol: as §1, §2, §3, §4
# [2] = molecular target: T1, Ba/F3 cell EGFR L858R/T790M (Homo sapiens, UniProt P00533, L858R/T790M); assay: Ba/F3 cell proliferation suppression, EGFR L858R/T790M; type: cell-based; settings: 72 hours after treatment, CellTiter-Glo
# T1 construct: expressed in transfected cells; host or cells: Ba/F3
# Protocol: as §1, §2, §3, §4
# Ba/F3 cell EGFR L858R = molecular target: T2, Ba/F3 cell EGFR L858R (Homo sapiens, UniProt P00533, L858R); assay: Ba/F3 cell proliferation suppression, EGFR L858R; type: cell-based; settings: 72 hours after treatment, CellTiter-Glo
# T2 construct: expressed in transfected cells; host or cells: Ba/F3
# Protocol: as §1, §2, §3, §4
# [3] = molecular target: T3, Ba/F3 cell EGFR Exon20 ins SVD (Homo sapiens, UniProt P00533, INS770SVD); assay: Ba/F3 cell proliferation suppression, EGFR Exon20 ins SVD; type: cell-based; settings: 72 hours after treatment, CellTiter-Glo
# T3 construct: expressed in transfected cells; host or cells: Ba/F3
# Protocol: as §1, §2, §3, §4
# [4] = molecular target: T4, Ba/F3 cell EGFR Exon20 ins NPH (Homo sapiens, UniProt P00533, INS773NPH); assay: Ba/F3 cell proliferation suppression, EGFR Exon20 ins NPH; type: cell-based; settings: for GI50: 72 hours after treatment, CellTiter-Glo; for Ba/F3 (NPH) Activity: GI50 class, Ba/F3 cell line with NPH inserted at Exon20 of EGFR, 72 hours
# T4 construct: expressed in transfected cells; host or cells: Ba/F3
# Outline: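 After 72 h compound exposure (twelve 3-fold steps, 0.3 nM–50 um final), live cells were measured by CellTiter-Glo luminescence and growth expressed as % of control to derive GI50. Cells were seeded at 3000–5000 per well a day earlier; Ba/F3 medium contained IL-3; three repeats.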
# PC9GR = assay: Lung cancer cell proliferation suppression, PC9GR; type: cell-based; settings: 72 hours after treatment, CellTiter-Glo
# Protocol: as §1, §2, §3, §4
# [5] = molecular target: T5, Ba/F3 cell HER2 Exon20 ins YVMA (Homo sapiens, UniProt P04626, INS775YVMA); assay: Ba/F3 cell proliferation suppression, HER2 Exon20 ins YVMA; type: cell-based; settings: 72 hours after treatment, CellTiter-Glo
# T5 construct: expressed in transfected cells; host or cells: Ba/F3
# T5 sequence (P04626 with tags, fused parts or gaps INS775YVMA): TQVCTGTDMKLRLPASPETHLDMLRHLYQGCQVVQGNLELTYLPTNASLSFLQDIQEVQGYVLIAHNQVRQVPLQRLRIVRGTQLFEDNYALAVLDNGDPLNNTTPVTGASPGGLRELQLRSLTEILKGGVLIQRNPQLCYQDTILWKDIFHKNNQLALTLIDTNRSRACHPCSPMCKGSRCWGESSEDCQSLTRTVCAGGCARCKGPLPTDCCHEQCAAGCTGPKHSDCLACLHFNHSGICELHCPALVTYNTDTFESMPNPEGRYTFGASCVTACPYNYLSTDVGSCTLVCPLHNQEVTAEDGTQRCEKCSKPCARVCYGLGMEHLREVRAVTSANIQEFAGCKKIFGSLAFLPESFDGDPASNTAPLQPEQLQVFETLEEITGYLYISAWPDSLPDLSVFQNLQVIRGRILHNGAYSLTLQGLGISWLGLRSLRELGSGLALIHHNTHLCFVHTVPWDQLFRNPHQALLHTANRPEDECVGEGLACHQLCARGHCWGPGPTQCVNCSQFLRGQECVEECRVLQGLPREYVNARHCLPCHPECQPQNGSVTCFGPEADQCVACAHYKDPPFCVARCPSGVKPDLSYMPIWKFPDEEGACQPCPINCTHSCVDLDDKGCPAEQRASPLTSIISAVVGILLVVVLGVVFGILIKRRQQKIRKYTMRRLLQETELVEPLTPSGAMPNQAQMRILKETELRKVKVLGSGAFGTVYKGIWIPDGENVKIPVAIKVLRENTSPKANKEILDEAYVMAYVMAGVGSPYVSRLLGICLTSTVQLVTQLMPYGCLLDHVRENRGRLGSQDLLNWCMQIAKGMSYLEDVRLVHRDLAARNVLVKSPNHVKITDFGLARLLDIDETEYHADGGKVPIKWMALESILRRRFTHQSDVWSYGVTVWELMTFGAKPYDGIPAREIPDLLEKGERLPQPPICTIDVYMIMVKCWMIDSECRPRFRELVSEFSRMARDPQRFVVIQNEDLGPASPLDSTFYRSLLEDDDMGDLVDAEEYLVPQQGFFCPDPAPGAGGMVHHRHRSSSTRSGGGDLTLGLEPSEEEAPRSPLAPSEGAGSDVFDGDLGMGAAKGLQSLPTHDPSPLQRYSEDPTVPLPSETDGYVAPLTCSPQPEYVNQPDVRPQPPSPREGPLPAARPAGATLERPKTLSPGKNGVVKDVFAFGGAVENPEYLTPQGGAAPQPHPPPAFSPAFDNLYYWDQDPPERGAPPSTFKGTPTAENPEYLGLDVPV
# Protocol: as §1, §2, §3, §4
# [6] = molecular target: T6, Ba/F3 cell EGFR Exon20 ins ASV (Homo sapiens, UniProt P00533, INS769ASV); assay: Ba/F3 cell proliferation suppression, EGFR Exon20 ins ASV; type: cell-based; settings: 72 hours after treatment, CellTiter-Glo
# T6 construct: expressed in transfected cells; host or cells: Ba/F3
# Protocol: as §1, §2, §3, §4
# H1975 = assay: Lung cancer cell proliferation suppression, H1975; type: cell-based; settings: Homo sapiens, NCI-H1975; 72 hours after treatment, CellTiter-Glo
# Protocol: as §1, §2, §3, §4
# PC9 = assay: Lung cancer cell proliferation suppression, PC9; type: cell-based; settings: Homo sapiens, PC-9; 72 hours after treatment, CellTiter-Glo
# Protocol: as §1, §2, §3, §4
# [7] = system: scanMAX kinase panel (EGFR mutant, ERBB2, ERBB4); assay: DiscoverX (eurofin) KINOMEscan (scanMAX platform) kinase profiling; type: binding
# Excerpt: It was confirmed that the above example compounds had high selectivity against EGFR series genes. Accordingly, these can be useful in the treating of cancers wherein this kinase is expressed. In particular, as they have substantially outstanding lung cancer cell line proliferation suppression, they can be useful in the treatment of lung cancer, breast cancer, and brain cancer.
# [8] = molecular target: T7, Ba/F3 cell EGFR Exon20 ins FQEA (Homo sapiens, UniProt P00533, INS763FQEA); assay: Ba/F3 cell proliferation suppression, EGFR Exon20 ins FQEA; type: cell-based; settings: 72 hours after treatment, CellTiter-Glo
# T7 construct: expressed in transfected cells; host or cells: Ba/F3
# Protocol: as §1, §2, §3, §4
SMILES,GI50 (Ba/F3 cell naive),GI50 [1],GI50 [2],GI50 (Ba/F3 cell EGFR L858R),GI50 [4],Ba/F3 (NPH) Activity [4],other results
"C=CC(=O)Nc1cc(Nc2cc(N3OCC[C@@H]3c3cc(F)cc(F)c3)ncn2)c(OC)cc1N1CCC(N2CCOCC2)CC1 [Example 30, N-(5-((6-((R)-3-(3,5-difluorophenyl)isoxazolidine-2-yl)pyrimidine-4-yl)amino)-4-methoxy-2-(4-morpholinopiperidine-1-yl)phenyl) acrylamide]",≥ 5 µM,< 0.05 µM,< 0.05 µM,< 0.05 µM,< 0.05 µM,A (GI50 < 50 nM),"GI50 [3]: < 0.05 µM; GI50 (PC9GR): 6 nM; GI50 [5]: < 0.05 µM; GI50 [6]: < 0.05 µM; GI50 (H1975): 1 nM; GI50 (PC9): 1 nM; % inhibition of scanMAX Kinase profiling ([7]; EGFR(E746-A750del)): 95%; % inhibition of scanMAX Kinase profiling ([7]; EGFR(G719C)): 100%; % inhibition of scanMAX Kinase profiling ([7]; EGFR(G719S)): 100%; % inhibition of scanMAX Kinase profiling ([7]; EGFR(L747-E749del, A750P)): 100%; % inhibition of scanMAX Kinase profiling ([7]; EGFR(L747-T751del.Sins)): 96%; % inhibition of scanMAX Kinase profiling ([7]; EGFR(L858R)): 100%; % inhibition of scanMAX Kinase profiling ([7]; EGFR(L858R.T790M)): 97%; % inhibition of scanMAX Kinase profiling ([7]; EGFR(L861q)): 100%; % inhibition of scanMAX Kinase profiling ([7]; EGFR(S752-I759del)): 99%; % inhibition of scanMAX Kinase profiling ([7]; EGFR(T790M)): 100%; % inhibition of scanMAX Kinase profiling ([7]; ERBB2): 100%; % inhibition of scanMAX Kinase profiling ([7]; ERBB4): 100%; suppression activity against the EGFR mutant and ERBB2 and ERBB4 ([7]; KINOMEscan scanMAX kinase profiling): high suppression activity; GI50 [8]: < 0.05 µM"
"C=CC(=O)Nc1cc(Nc2cc(N3OCC[C@@H]3c3cc(F)cc(F)c3)ncn2)c(OC)cc1N1CCN(CC)CC1 [Example 240, N-(5-((6-((R)-3-(3,5-difluorophenyl)isoxazolidine-2-yl)pyrimidine-4-yl)amino)-2-(4-ethylpiperazine-1-yl)-4-methoxyphenyl) acrylamide]",≥ 5 µM,,< 0.05 µM,,< 0.05 µM,A (GI50 < 50 nM),GI50 [6]: < 0.05 µM
"C=CC(=O)Nc1cc(Nc2cc(N3OCC[C@@H]3c3cc(F)cc(F)c3)ncn2)c(OC)cc1N1CCC(N2CC[C@@H](N(C)C)C2)CC1 [Example 237, N-(5-((6-((R)-3-(3,5-difluorophenyl)isoxazolidine-2-yl)pyrimidine-4-yl)amino)-2-(4-((R)-3-(dimethylamino)pyrolidine-1-yl)piperidine-1-yl)-4-methoxyphenyl) acrylamide]",≥ 5 µM,,< 0.05 µM,,< 0.05 µM,A (GI50 < 50 nM),GI50 [6]: < 0.05 µM
"C=CC(=O)Nc1cc(Nc2cc(N3OCC[C@@H]3c3cc(F)cc(F)c3)ncn2)c(OC)cc1N1CCC(N2CC3CC(C2)N3CC)CC1 [Example 252, N-(5-((6-((R)-3-(3,5-difluorophenyl)isoxazolidine-2-yl)pyrimidine-4-yl)amino)-2-(4-(6-ethyl-3,6-diazabicyclo[3.1.1]heptane-3-yl)piperidine-1-yl)-4-methoxyphenyl) acrylamide]",0.5 to 5 µM,,< 0.05 µM,,< 0.05 µM,A (GI50 < 50 nM),
"C=CC(=O)Nc1cc(Nc2cc(N3OCC[C@@H]3c3ccccc3)ncn2)c(OC)cc1N1CCN(C2CC2)CC1 [Example 7, N-(2-(4-cyclopropylpiperazine-1-yl)-4-methoxy-5-((6-((R)-3-phenylisoxazolidine-2-yl)pyrimidine-4-yl)amino)phenyl) acrylamide]",≥ 5 µM,< 0.05 µM,0.05 to 0.5 µM,,,,
"C=CC(=O)Nc1cc(Nc2cc(N3OCC[C@@H]3c3ccccc3)ncn2)c(OC)cc1OCCN(C)C [Example 8, N-(2-(2-(dimethylamino)ethxy)-4-methoxy-5-((6-(R)-3-phenylisoxazolidine-2-yl)pyrimidine-4-yl-amino)phenyl) acrylamide]",0.5 to 5 µM,0.05 to 0.5 µM,0.05 to 0.5 µM,,,,
"C=CC(=O)Nc1cc(Nc2cc(N3OCC[C@@H]3c3cc(F)cc(F)c3)ncn2)c(OC)cc1N1CCC(N2CCN(C(C)=O)CC2)CC1 [Example 251, N-(2-(4-(4-acetylpiperazine-1-yl)piperidine-1-yl)-5-((6-((R)-3-(3,5-difluorophenyl)isoxazolidine-2-yl)pyrimidine-4-yl)amino)-4-methoxyphenyl) acrylamide]",≥ 5 µM,,< 0.05 µM,,< 0.05 µM,A (GI50 < 50 nM),
"C=CC(=O)Nc1cc(Nc2cc(N3OCC[C@@H]3c3cc(F)cc(F)c3)ncn2)c(OC)cc1N1CCC(N2C3CC2CN(CC)C3)CC1 [Example 249, N-(5-((6-((R)-3-(3,5-difluorophenyl)isoxazolidine-2-yl)pyrimidine-4-yl)amino)-2-(4-(3-ethyl-3,6-diazabicyclo[3.1.1]heptane-6-yl)piperidine-1-yl)-4-methoxyphenyl) acrylamide]",≥ 5 µM,,< 0.05 µM,,< 0.05 µM,A (GI50 < 50 nM),

# Now from value to compound, other results behind:
GI50 (Ba/F3 cell naive),GI50 [1],GI50 [2],GI50 (Ba/F3 cell EGFR L858R),GI50 [4],Ba/F3 (NPH) Activity [4],SMILES,other results
≥ 5 µM,0.05 to 0.5 µM,0.05 to 0.5 µM,< 0.05 µM,,,"C=CC(=O)Nc1cc(Nc2cc(N3OCC[C@H]3c3ccccc3)ncn2)c(OC)cc1N(C)CCN(C)C [Example 1, N-(2((2-(dimethylamino)ethyl) (methyl)amino)-4-methoxy-5-((6-((S)-3-phenylisoxazolidine-2-yl)pyrimidine-4-yl)amino)phenyl) acrylamide]",
≥ 5 µM,0.5 to 5 µM,0.5 to 5 µM,0.05 to 0.5 µM,,,"C=CC(=O)Nc1cc(Nc2cc(N3OCC[C@H]3c3ccccc3)ncn2)c(OC)cc1N1CCOCC1 [Example 2, N-(4-methoxy-2-morpholino-5-((6-((S)-3-phenylisoxazolidine-2-yl)pyrimidine-4-yl)amino)phenyl) acrylamide]",
≥ 5 µM,0.05 to 0.5 µM,0.05 to 0.5 µM,< 0.05 µM,,,"C=CC(=O)Nc1cc(Nc2cc(N3OCC[C@@H]3c3ccccc3)ncn2)c(OC)cc1N1CCOCC1 [Example 5, N-(4-methoxy-2-morpholino-5-((6-((R)-3-phenylisoxazolidine-2-yl)pyrimidine-4-yl)amino)phenyl) acrylamide]",
≥ 5 µM,,< 0.05 µM,,< 0.05 µM,A (GI50 < 50 nM),"C=CC(=O)Nc1cc(Nc2cc(N3OCC[C@@H]3c3cc(F)cc(F)c3)ncn2)c(OC)cc1N1CCC(N2CC[C@H](N(C)C)C2)CC1 [Example 250, N-(5-((6-((R)-3-(3,5-difluorophenyl)isoxazolidine-2-yl)pyrimidine-4-yl)amino)-2-(4-((S)-3-(dimethylamino)pyrolidine-1-yl)piperidine-1-yl)-4-methoxyphenyl) acrylamide]",
≥ 5 µM,,< 0.05 µM,,< 0.05 µM,A (GI50 < 50 nM),"C=CC(=O)Nc1cc(Nc2cc(N3OCC[C@@H]3c3cc(F)cc(F)c3)ncn2)c(OC)cc1N1CCC(N2CCN(C)CC2)CC1 [Example 26, N-(5-((6-((R)-3-(3,5-difluorophenyl)isoxazolidine-2-yl)pyrimidine-4-yl)amino)-4-methoxy-2-(4-(4-methylpiperazine-1-yl)piperidine-1-yl)phenyl)acrylamide]",GI50 [3]: < 0.05 µM; GI50 [5]: < 0.05 µM
